Experimental data as given in patent publication US20250186405A1, “Compound For Use In Treating Narcolepsy” (Alkermes, Inc., priority 2023, published 2025).
Read-outs that look alike come from different tables or passages of the source.

Columns and labels:
[1] = test system: healthy adult subjects; assay: Part 3 RelBA with FE: safety; type: in vivo, human; settings: 10 mg
Method: Part 3 compared the relative bioavailability (RelBA) of Compound A between a tablet formulation and the powder-in-capsule formulation. In addition, the food effect (FE) on the bioavailability of Compound A was assessed following administration of tablet formulation. Dose levels were as follows:
The Part 3 (RelBA with FE) evaluation was conducted using a 2-sequence, 3-period crossover study design in approximately 12 subjects. Subjects in Part 3 were randomized 1:1 to receive 1 of 2 sequences consisting of 3 periods with up to 72 hours of washout between treatments. The first 2 periods were dosed under fasted state and the third period was dosed in a fed state (high-fat meal).
In treatment period(s) under the fed condition, following overnight fast, all subjects were given a high-fat breakfast. Within 30 minutes of starting the consumption of the breakfast, the assigned treatment was administered. […] There was a 72-hour washout period between the treatments.

[2] = test system: non-sleep deprived healthy volunteers; assay: Part 1 SAD: quantitative EEG (beta band power) and KSS biomarkers; type: in vivo, human; settings: single doses, resting wakeful state
Method: On Day −1, approximately 25 hours prior to study drug administration (on Day 1), baseline assessments for qEEG began and were collected for approximately 12 hours.
At time points within Part 1 of the study, qEEG assessment was performed. The subject remained still in a seated or supine position during the EEG acquisition time points. Each EEG acquisition continued for a total of 10 minutes: initial 5 minutes with eyes closed followed by 5 minutes with eyes open looking at a fixation point.
The PD parameters in the SAD evaluation (e.g., changes from baseline in QTcF, power of qEEG frequency bands, KSS) were summarized using descriptive statistics for each time point by dose level.
As discussed above in Example sections 4.10.3.2, 4.13.4, and 4.15.1, pharmacodynamic parameters in the SAD evaluation (e.g., changes from baseline in QTcF, power of qEEG frequency bands, KSS) were measured in non-sleep deprived healthy volunteers. […] The dots indicate the average post-dose measurements at each timepoint and the shaded areas show the confidence intervals. The data points representing Compound A cluster in the area associated with both higher beta power and increased alertness relative to placebo, with little overlap between the two groups.

[3] = test system: healthy adult subjects; settings: human, in vivo
Method: Part 1 of the study is a SAD evaluation in healthy subjects consisting of 6 cohorts: Cohorts 1-6 received powder-in-capsule or matching placebo. There were approximately 8 subjects per cohort. Dose levels were as follows:
No food was given for at least 4 hours after dose administration. Water was allowed ad libitum except for the time 1 hour before and 1 hour after study drug administration. Safety assessments including AEs, safety ECGs, vital signs, and clinical laboratory tests were conducted, and plasma PK samples were collected.
Adverse events (AEs) and serious adverse events (SAEs) were monitored continuously until the completion of the study.

[4] = Part 1 SAD: plasma pharmacokinetics after single oral dose; type: in vivo, human; settings: for CL/F / AUC(0-t) / Cmax / AUC(0-inf) / half-life / Vd/F / concentration at 8 h: geometric mean; for AUC(0-t) / Cmax / AUC(0-inf) / half-life / Vd/F / concentration at 8 h / Tmax: human, plasma; for Vd/F: read-out: Vz/F; for concentration at 8 h: read-out: C8 (concentration at 8-hour post dose)
Method: There were approximately 8 subjects per cohort. Dose levels were as follows:
(§1) Blood samples (up to 5 mL per sample) were collected for PK analysis of Compound A and its metabolite(s). The actual time of sample collection was recorded. The PK samples of the subjects randomized to placebo treatment were not analyzed. Any remaining plasma PK samples were used to explore the presence of any additional metabolites and/or biomarkers.
(§2) Plasma and urine concentrations of Compound A and its metabolite(s) were measured using a validated high-performance liquid chromatography with tandem mass spectrometry.
The plasma PK parameters of Compound A and its metabolite(s) were determined from the plasma concentration-time profiles for all evaluable subjects. Actual sampling times, rather than scheduled sampling times, were used in all computations involving sampling times. The below lower limit of quantitation concentrations were set to zero prior to PK parameter estimation.
(§3) The PK population was used for summaries of plasma Compound A and its metabolite(s) concentrations and for analyses, summaries, and listing of PK parameters. Dose proportionality for Cmax, AUC0-t, and AUC0-∞ was evaluated using a linear model of logarithmically transformed values to assess the slope parameter, and the 95% CI for the slope was estimated. Where the 95% CI of the slope includes 1, it was considered as evidence of dose proportionality for that PK parameter.

[5] = Part 6 IH: plasma pharmacokinetics, single doses; type: in vivo, human; settings: for Cmax / AUC(0-t) / Tmax: human, oral, plasma; for Cmax / AUC(0-t): geometric mean; for AUC(0-t): read-out: AUC0-24
Method: Treatments were administered under fasted state. Dose levels were as follows:
Subjects were randomized to 1 of 4 sequences.
as §1, §2
as §3, with “Where a” for “Where the”

[6] = 1 mg single dose (low end of 1 to 50 mg)
[7] = 50 mg single dose (high end of 1 to 50 mg)

Q: Which results are given for `CS(=O)(=O)N[C@H]1CCCN2C(=O)COc3ccccc3C3CCC(CC3)OCC12` (stereo partly drawn) [Compound A, N-[(4S,4aR,7α,10α)-1,2,3,4,4a,5,7,8,9,10,16,17-dodecahydro-17-oxo-7,10-ethanopyrido[1,2-d][1,7,4]benzodioxaazacyclotridecin-4-yl]methanesulfonamide]?
A: Tolerability ([1]; fed and fasted conditions): well tolerated; subjects reporting at least one AE (of 12) ([1]; three administrations): 11; qEEG beta band signal, change from baseline [2]: Dose-dependent increases in beta band signal were observed; TEAE COVID-19 [3]: 3 n; geometric mean AUC0-inf/D [4, 6]: 11.6; geometric mean Cmax/D [4, 6]: 3.2; CL/F ([4]; 1 mg single dose, N = 5): 86.0 L/h; CL/F ([4]; 3 mg single dose, N = 3): 95.6 L/h; CL/F ([4]; 8 mg single dose, N = 4): 96.4 L/h; CL/F ([4]; 15 mg single dose, N = 5): 89.8 L/h; CL/F ([4]; 25 mg single dose): 91.1 L/h; geometric mean AUC0-inf/D [4, 7]: 10.1; geometric mean Cmax/D [4, 7]: 0.59; CL/F ([4]; 50 mg single dose, N = 2): 99.3 L/h; AUC(0-t) ([4]; oral, 1 mg single dose): 12.3 ng·h/mL; Cmax ([4]; oral, 1 mg single dose): 3.23 ng/mL; AUC(0-inf) ([4]; oral, 1 mg single dose, N = 5): 11.6 ng·h/mL; half-life ([4]; oral, 1 mg single dose, N = 5): 2.79 h; Vd/F ([4]; oral, 1 mg single dose, N = 5): 346 L; concentration at 8 h ([4]; oral, 1 mg single dose): 0.337 ng/mL; Tmax ([4]; oral, 1 mg single dose, median, read-out: Tmax): 1.5 h; AUC(0-t) ([4]; oral, 3 mg single dose): 36.6 ng·h/mL; Cmax ([4]; oral, 3 mg single dose): 6.15 ng/mL; AUC(0-inf) ([4]; oral, 3 mg single dose, N = 3): 31.4 ng·h/mL; half-life ([4]; oral, 3 mg single dose, N = 3): 2.31 h; Vd/F ([4]; oral, 3 mg single dose, N = 3): 318 L; concentration at 8 h ([4]; oral, 3 mg single dose): 1.24 ng/mL; Tmax ([4]; oral, 3 mg single dose, median, read-out: Tmax): 1.5 h; AUC(0-t) ([4]; oral, 8 mg single dose): 81.3 ng·h/mL; Cmax ([4]; oral, 8 mg single dose): 11.5 ng/mL; AUC(0-inf) ([4]; oral, 8 mg single dose, N = 4): 83 ng·h/mL; half-life ([4]; oral, 8 mg single dose, N = 4): 16 h; Vd/F ([4]; oral, 8 mg single dose, N = 4): 2220 L; concentration at 8 h ([4]; oral, 8 mg single dose): 2.47 ng/mL; Tmax ([4]; oral, 8 mg single dose, median, read-out: Tmax): 2 h; AUC(0-t) ([4]; oral, 15 mg single dose): 165 ng·h/mL; Cmax ([4]; oral, 15 mg single dose): 22.1 ng/mL; AUC(0-inf) ([4]; oral, 15 mg single dose, N = 5): 167 ng·h/mL; half-life ([4]; oral, 15 mg single dose, N = 5): 10.1 h; Vd/F ([4]; oral, 15 mg single dose, N = 5): 1300 L; concentration at 8 h ([4]; oral, 15 mg single dose): 4.07 ng/mL; Tmax ([4]; oral, 15 mg single dose, median, read-out: Tmax): 2.5 h; AUC(0-inf) ([4]; oral, 25 mg single dose): 274 ng·h/mL; AUC(0-t) ([4]; oral, 25 mg single dose): 241 ng·h/mL; Cmax ([4]; oral, 25 mg single dose): 23.1 ng/mL; half-life ([4]; oral, 25 mg single dose): 12.5 h; concentration at 8 h ([4]; oral, 25 mg single dose): 5.7 ng/mL; Vd/F ([4]; oral, 25 mg single dose): 1650 L; Tmax ([4]; oral, 25 mg single dose, median, read-out: Tmax): 1 h; AUC(0-t) ([4]; oral, 50 mg single dose): 357 ng·h/mL; Cmax ([4]; oral, 50 mg single dose): 29.3 ng/mL; AUC(0-inf) ([4]; oral, 50 mg single dose, N = 2): 503 ng·h/mL; half-life ([4]; oral, 50 mg single dose, N = 2): 7.34 h; Vd/F ([4]; oral, 50 mg single dose, N = 2): 1050 L; concentration at 8 h ([4]; oral, 50 mg single dose): 7.83 ng/mL; Tmax ([4]; oral, 50 mg single dose, median, read-out: Tmax): 2 h; Tmax ([4]; single oral doses 1 to 50 mg, fasted subjects, read-out: median Tmax, range across doses): 1 to 2.5 h; fold change in geometric mean AUC (AUClast) for 50-fold change in dose ([4]; single doses 1 to 50 mg): 29 fold; fold change in geometric mean Cmax for 50-fold change in dose ([4]; single doses 1 to 50 mg): 9 fold; fold change in AUC and Cmax for 5-fold change in dose ([5]; IH patients, 5 to 25 mg): approximately 3 fold; Cmax ([5]; 5 mg, IH, n = 7): 11.8 ng/mL; AUC(0-t) ([5]; 5 mg, IH, n = 7): 78.9 ng·h/mL; Cmax ([5]; 12 mg, IH, n = 7): 18.1 ng/mL; AUC(0-t) ([5]; 12 mg, IH, n = 7): 156 ng·h/mL; Cmax ([5]; 25 mg, IH, N = 8): 32.2 ng/mL; AUC(0-t) ([5]; 25 mg, IH, N = 8): 230 ng·h/mL; Tmax ([5]; 5 mg, IH, median, n = 7, read-out: Tmax): 1.5 h; Tmax ([5]; 12 mg, IH, median, n = 7, read-out: Tmax): 3 h; Tmax ([5]; 25 mg, IH patients, 5, 12, 25 mg, read-out: median tmax, range across doses): 1.5 to 3 h; Tmax ([5]; 25 mg, IH, median, N = 8, read-out: Tmax): 1.5 h
